For orientation: IC50 means the concentration needed to halve the response being measured.

Molecules are shown by their SMILES.

Common to all, as to type: biochemical
In assay [1] the target is S6K1 (Homo sapiens (Human), UniProt P23443). The assay can be described thus: Inhibitory effects on S6K1 kinase activity (QSS Assist FP assay kit). To be noted: S6K1, ATP 25 μM; read-out: S6K inhibitory activity IC50. The protocol:
Inhibitory activity of the compound according to the present invention on S6K1 kinase activity in vitro was assayed using the QSS Assist™ FP assay kit (Carna Biosciences, Inc.).
In the inhibition assay for inhibitory activity of the compound, the test compound was diluted by serial dilution with dimethyl sulfoxide (DMSO). Subsequently, an S6K protein, a substrate peptide (final concentration: 100 nM), magnesium chloride (final concentration: 5 mM), ATP (final concentration: 25 μM), and the solution of the test compound in DMSO (final DMSO concentration: 5%) were added to the kinase reaction buffer (20 mM HEPES (pH 7.4), 2 mM dithiothreitol, 0.01% Tween-20), and the mixture was incubated at 25° C. for 30 minutes to perform the kinase reaction. The IMAP Progressive Binding Reagent diluted to 400-fold with the IMAP Progressive Binding Buffer A (Molecular Devices, LLC) was added thereto to terminate the kinase reaction. The reaction product was allowed to stand at room temperature in the dark for 120 minutes and assayed with the use of PHERAstar (BMG LABTECH; excitation wavelength: 485 nm; detection wavelength: 520 nm). The level of phosphorylation reaction was determined based on the degree of fluorescence polarization, and the concentration of the compound at which phosphorylation could be inhibited by 50% was defined as the IC50 level (nM) and shown in Table 4.

Assay [2] deals with Rsk1 (Homo sapiens (Human), UniProt Q15418). The assay can be described thus: Inhibitory effects on Rsk1 kinase activity (QSS Assist FP assay kit). To be noted: Rsk1, ATP 30 μM; read-out: Rsk inhibitory activity IC50. The protocol: Inhibitory activity of the compound according to the present invention on Rsk1 kinase activity in vitro was assayed using the QSS Assist™ FP assay kit (Carna Biosciences, Inc.).
Chain of Rsk1 (Q15418 whole entry): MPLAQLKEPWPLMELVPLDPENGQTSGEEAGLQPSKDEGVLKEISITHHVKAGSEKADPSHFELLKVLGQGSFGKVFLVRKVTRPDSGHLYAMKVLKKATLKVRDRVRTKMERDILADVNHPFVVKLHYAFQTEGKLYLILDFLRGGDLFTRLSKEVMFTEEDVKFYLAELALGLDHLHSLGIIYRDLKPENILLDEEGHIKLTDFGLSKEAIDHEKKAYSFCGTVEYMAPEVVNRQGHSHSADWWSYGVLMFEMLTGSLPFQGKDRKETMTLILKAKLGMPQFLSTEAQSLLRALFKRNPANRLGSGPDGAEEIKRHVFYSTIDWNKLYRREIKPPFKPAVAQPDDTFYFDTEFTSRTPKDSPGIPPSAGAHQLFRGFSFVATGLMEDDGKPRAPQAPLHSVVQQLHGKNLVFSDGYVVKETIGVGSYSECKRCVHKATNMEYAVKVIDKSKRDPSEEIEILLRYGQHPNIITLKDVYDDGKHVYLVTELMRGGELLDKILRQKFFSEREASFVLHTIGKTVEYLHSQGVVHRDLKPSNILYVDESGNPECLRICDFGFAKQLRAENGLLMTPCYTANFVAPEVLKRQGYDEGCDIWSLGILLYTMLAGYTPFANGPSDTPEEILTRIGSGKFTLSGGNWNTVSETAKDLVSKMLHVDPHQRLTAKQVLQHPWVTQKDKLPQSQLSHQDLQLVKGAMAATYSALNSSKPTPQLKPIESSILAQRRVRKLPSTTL
In the inhibition assay of inhibitory activity of the compound, the test compound was diluted by serial dilution with dimethyl sulfoxide (DMSO). Subsequently, an Rsk1 protein, a substrate peptide (final concentration: 100 nM), magnesium chloride (final concentration: 10 mM), ATP (final concentration: 30 μM), and the solution of the test compound in DMSO (DMSO final concentration: 5%) were added to the kinase reaction buffer (20 mM HEPES (pH 7.4), 2 mM dithiothreitol, 0.01% Tween-20), and the mixture was incubated at 25° C. for 40 minutes to perform the kinase reaction. The IMAP Progressive Binding Reagent diluted to 400-fold with the IMAP Progressive Binding Buffer A (Molecular Devices, LLC) was added to terminate the kinase reaction.

Assay [3] concerns the target human Akt1 (Homo sapiens (Human), UniProt P31749). The assay can be described thus: Inhibitory effects on Akt1 kinase activity (TR-FRET, biotinylated Crosstide). To be noted: Akt1, ATP 150 μM, pre-incubation 120 minutes at 25° C.; read-out: AKT inhibitory activity IC50. The protocol: Akt1 was prepared and assays of inhibitory activity of the compound according to the present invention against Akt1 kinase activity in vitro were conducted according to the method described in Biochem. J., vol. 385, pp. 399-408, 2005 and Cancer Res., vol. 68, pp. 2366-2374, 2008. In the preparation of Akt1 protein, human Akt1 tagged with the middle T antigen was expressed in an insect cell Sf9, Akt1 was prepared through affinity purification and activation by PDK1, and the resultant was stored at −80° C. until the inhibition assays of the compounds. In the inhibition assay of the compounds, Akt1 and the compound according to the present invention were subjected to pre-incubation at 25° C. for 120 minutes in a reaction buffer (15 mM Tris-HCl, pH 7.5, 0.01% Tween-20, 2 mM DTT). Subsequently, biotinylated Crosstide (biotin-[…], Millipore), MgCl2, and ATP were added as substrates at the final concentration of 500 nM, 10 mM, and 150 μM, respectively, and the reaction was allowed to proceed at 25° C. for 60 minutes. EDTA was added to the final concentration of 40 mM to terminate the reaction, a detection liquid containing the Eu-anti-phospho-Crosstide antibody (PerkinElmer) and SureLight APC-SA (PerkinElmer) at the final concentration of 0.5 nM and 62.5 nM, respectively was added, and the reaction was allowed to proceed at room temperature for 2 hours. In the end, the fluorescence levels irradiated with an excitation light of 337 nm were assayed at two different wavelength levels (i.e., 620 nm and 665 nm) using PI-HERAstar FS (BMG LABTECH) or PHERAstar (BMG LABTECH). The level of the phosphorylation reaction was determined on the basis of the ratio of fluorescence levels at two wavelength levels, and the concentration of the compound at which phosphorylation could be inhibited by 50% was defined as the IC50 level (nM) and shown in Table 2.
As reference compounds, conventional Comparative Example A (WO 2010/056563 (Example 31)) and Comparative Example B having inhibitory activity against Akt were used.
(TR-FRET usually uses a lanthanide donor and a delayed reading to cut background.)

Chain of human Akt1 (P31749 whole entry): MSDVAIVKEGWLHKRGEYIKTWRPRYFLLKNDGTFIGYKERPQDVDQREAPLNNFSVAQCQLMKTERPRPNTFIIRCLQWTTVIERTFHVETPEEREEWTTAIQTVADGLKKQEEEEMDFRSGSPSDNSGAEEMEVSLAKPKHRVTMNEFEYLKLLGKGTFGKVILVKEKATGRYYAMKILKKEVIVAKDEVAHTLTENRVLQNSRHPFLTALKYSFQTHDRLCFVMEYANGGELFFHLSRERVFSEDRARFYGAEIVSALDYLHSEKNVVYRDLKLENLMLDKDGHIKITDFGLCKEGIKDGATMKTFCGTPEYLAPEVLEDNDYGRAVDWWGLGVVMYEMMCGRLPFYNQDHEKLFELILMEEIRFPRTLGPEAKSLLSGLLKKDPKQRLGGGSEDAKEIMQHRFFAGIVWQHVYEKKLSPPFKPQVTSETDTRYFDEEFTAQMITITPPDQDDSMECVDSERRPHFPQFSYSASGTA
Chain of S6K1 (P23443 whole entry): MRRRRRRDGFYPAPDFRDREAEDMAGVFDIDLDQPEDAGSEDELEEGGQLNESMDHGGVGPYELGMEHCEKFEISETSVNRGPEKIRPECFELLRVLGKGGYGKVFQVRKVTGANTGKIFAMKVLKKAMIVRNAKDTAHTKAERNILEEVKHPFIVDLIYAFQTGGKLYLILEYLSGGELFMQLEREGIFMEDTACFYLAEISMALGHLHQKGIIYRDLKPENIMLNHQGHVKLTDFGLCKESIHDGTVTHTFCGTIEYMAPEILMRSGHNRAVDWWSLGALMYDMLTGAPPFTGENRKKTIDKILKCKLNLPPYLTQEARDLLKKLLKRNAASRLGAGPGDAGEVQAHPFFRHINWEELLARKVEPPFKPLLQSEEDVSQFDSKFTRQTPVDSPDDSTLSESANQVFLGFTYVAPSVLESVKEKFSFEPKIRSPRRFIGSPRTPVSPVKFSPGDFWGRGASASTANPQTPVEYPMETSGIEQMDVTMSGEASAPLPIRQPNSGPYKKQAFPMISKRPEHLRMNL

For `CC(C)NCCNc1ccc(-c2cc(Cl)nn2C)nc1C1CCN(c2ncnc3c2C(C)(C)C(=O)N3)CC1` [Compound 11, 4-(4-(6-(3-Chloro-1-methyl-1H-pyrazol-5-yl)-3-((2-(isopropylamino)ethyl)amino)pyridin-2-yl)piperidin-1-yl)-5,5-dimethyl-5H-pyrrolo[2,3-d]pyrimidin-6(7H)-one], the IC50 worked out at 0.3 nM in assay [1], 0.7 nM in assay [2] and 5.8 nM in assay [3].
For `COc1cc(-c2ccc(NCCN3CCCC3)c(C3CCN(c4ncnc5c4C(C)C(=O)N5)CC3)n2)c(F)cn1` (stereo not drawn) [Compound 16, 4-(4-(5′-Fluoro-2′-methoxy-5-((2-(pyrrolidin-1-yl)ethyl)amino)-[2,4′-bipyridin]-6-yl)piperidin-1-yl)-5-methyl-5H-pyrrolo[2,3-d]pyrimidin-6(7H)-one] the same measures were 0.7 nM, 0.8 nM and 1.9 nM.
As to `CC1C(=O)Nc2ncnc(N3CCC(c4nc(-c5cccnc5F)ccc4NCCN4CCCC4)CC3)c21` (stereo not drawn) [Compound 17, 4-(4-(2′-Fluoro-5-((2-(pyrrolidin-1-yl)ethyl)amino)-[2,3′-bipyridin]-6-yl)piperidin-1-yl)-5-methyl-5H-pyrrolo[2,3-d]pyrimidin-6(7H)-one], the IC50 is 0.7 nM in assay [1], 1.1 nM in assay [2] and 0.6 nM in assay [3].
As to `CC1C(=O)Nc2ncnc(N3CCC(c4nc(-c5ccsc5)ccc4NCCN4CCCC4)CC3)c21` (stereo not drawn) [Compound 18, 5-Methyl-4-(4-(3-((2-(pyrrolidin-1-yl)ethyl)amino)-6-(thiophen-3-yl)pyridin-2-yl)piperidin-1-yl)-5H-pyrrolo[2,3-d]pyrimidin-6(7H)-one], the IC50 in assay [1] was found to be 0.8 nM; in assay [2], 1.4 nM; in assay [3] it was 0.5 nM.
With `CC1C(=O)Nc2ncnc(N3CCC(c4nc(-c5cncc(F)c5)ccc4NCCN4CCCC4)CC3)c21` (stereo not drawn) [Compound 19, 4-(4-(5′-Fluoro-5-((2-(pyrrolidin-1-yl)ethyl)amino)-[2,3′-bipyridin]-6-yl)piperidin-1-yl)-5-methyl-5H-pyrrolo[2,3-d]pyrimidin-6(7H)-one], the IC50 turned out to be 0.5 nM in assay [1], 0.9 nM in assay [2] and 0.4 nM in assay [3].
For `CC1C(=O)Nc2ncnc(N3CCC(c4nc(-c5cc(C(F)(F)F)nn5C)ccc4NCCN4CCCC4)CC3)c21` (stereo not drawn) [Compound 20, 5-Methyl-4-(4-(6-(1-methyl-3-(trifluoromethyl)-1H-pyrazol-5-yl)-3-((2-(pyrrolidin-1-yl)ethyl)amino)pyridin-2-yl)piperidin-1-yl)-5H-pyrrolo[2,3-d]pyrimidin-6(7H)-one], the IC50 in assay [1] worked out at 0.6 nM; in assay [2], 0.9 nM; in assay [3], 0.6 nM.
Consider `COc1cncc(-c2ccc(NCCN(C)C)c(C3CCN(c4ncnc5c4C(C)C(=O)N5)CC3)n2)c1` (stereo not drawn) [Compound 21, 4-(4-(5-((2-(Dimethylamino)ethyl)amino)-5′-methoxy-[2,3′-bipyridin]-6-yl)piperidin-1-yl)-5-methyl-5H-pyrrolo[2,3-d]pyrimidin-6(7H)-one], for which the IC50 in assay [1] was 0.7 nM; in assay [2], 1.3 nM; in assay [3], 4 nM.
Regarding `CC1C(=O)Nc2ncnc(N3CCC(c4nc(-c5ccsc5)ccc4NCCN(C)C)CC3)c21` (stereo not drawn) [Compound 23, 4-(4-(3-((2-(Dimethylamino)ethyl)amino)-6-(thiophen-3-yl)pyridin-2-yl)piperidin-1-yl)-5-methyl-5H-pyrrolo[2,3-d]pyrimidin-6(7H)-one], the IC50 in assay [1] amounted to 0.4 nM; in assay [2], 1.5 nM; in assay [3] it was 0.7 nM.
In the case of `CC(C)NCCNc1ccc(-c2nnc(C(F)F)o2)nc1C1CCN(c2ncnc3c2C(C)(C)C(=O)N3)CC1` [Compound 31, 4-(4-(6-(5-(Difluoromethyl)-1,3,4-oxadiazol-2-yl)-3-((2-(isopropylamino)ethyl)amino)pyridin-2-yl)piperidin-1-yl)-5,5-dimethyl-5H-pyrrolo[2,3-d]pyrimidin-6(7H)-one], the IC50 in assay [1] was 0.6 nM; in assay [2], 1.8 nM; in assay [3] it was 7.6 nM.
As to `CC(C)NCCNc1ccc(-c2nnc(C(F)(F)F)o2)nc1C1CCN(c2ncnc3c2C(C)(C)C(=O)N3)CC1` [Compound 33, 4-(4-(3-((2-(Isopropylamino)ethyl)amino)-6-(5-(trifluoromethyl)-1,3,4-oxadiazol-2-yl)pyridin-2-yl)piperidin-1-yl)-5,5-dimethyl-5H-pyrrolo[2,3-d]pyrimidin-6(7H)-one], the results for the IC50 in assay [1], in assay [2] and in assay [3] were 0.5 nM, 1 nM and 2.5 nM, respectively.
Turning to `CN(CCNc1ccc(-c2nnc(C(F)(F)F)o2)nc1C1CCN(c2ncnc3c2C(C)(C)C(=O)N3)CC1)C(C)(C)C` [Compound 34, 4-(4-(3-((2-(Tert-butyl(methyl)amino)ethyl)amino)-6-(5-(trifluoromethyl)-1,3,4-oxadiazol-2-yl)pyridin-2-yl)piperidin-1-yl)-5,5-dimethyl-5H-pyrrolo[2,3-d]pyrimidin-6(7H)-one], the IC50 came out at 0.4 nM in assay [1], 0.9 nM in assay [2] and 1 nM in assay [3].
For `CC(C)(C)NCCNc1ccc(-c2nnc(C(F)F)s2)nc1C1CCN(c2ncnc3c2C(C)(C)C(=O)N3)CC1` [Compound 37, 4-(4-(3-((2-(Tert-butylamino)ethyl)amino)-6-(5-(difluoromethyl)-1,3,4-thiadiazol-2-yl)pyridin-2-yl)piperidin-1-yl)-5,5-dimethyl-5H-pyrrolo[2,3-d]pyrimidin-6(7H)-one] the same measures were 0.3 nM, 0.5 nM and 3.3 nM.
As for `CC(C)NCCNc1ccc(-c2nnc(C(F)F)s2)nc1C1CCN(c2ncnc3c2C(C)(C)C(=O)N3)CC1` [Compound 39, 4-(4-(6-(5-(Difluoromethyl)-1,3,4-thiadiazol-2-yl)-3-((2-(isopropylamino)ethyl)amino)pyridin-2-yl)piperidin-1-yl)-5,5-dimethyl-5H-pyrrolo[2,3-d]pyrimidin-6(7H)-one], the values for the IC50 in assay [1], in assay [2] and in assay [3] were 0.3 nM, 0.6 nM and 4.1 nM, respectively.
With `CC(C)(C)NCCNc1ccc(-c2nnc(C3CC3)s2)nc1C1CCN(c2ncnc3c2C(C)(C)C(=O)N3)CC1` [Compound 40, 4-(4-(3-((2-(Tert-butylamino)ethyl)amino)-6-(5-cyclopropyl-1,3,4-thiadiazol-2-yl)pyridin-2-yl)piperidin-1-yl)-5,5-dimethyl-5H-pyrrolo[2,3-d]pyrimidin-6(7H)-one], the IC50 in assay [1] is 0.3 nM; in assay [2], 0.6 nM; in assay [3], 3.6 nM.
Turning to `CC(C)NCCNc1ccc(-c2noc(C(F)(F)F)n2)nc1C1CCN(c2ncnc3c2C(C)(C)C(=O)N3)CC1` [Compound 42, 4-(4-(3-((2-(Isopropylamino)ethyl)amino)-6-(5-(trifluoromethyl)-1,2,4-oxadiazol-3-yl)pyridin-2-yl)piperidin-1-yl)-5,5-dimethyl-5H-pyrrolo[2,3-d]pyrimidin-6(7H)-one], the figures for the IC50 in assay [1], in assay [2] and in assay [3] were 0.5 nM, 1.2 nM and 4.8 nM, respectively.

The record behind these values is US10538528B2, “5H-pyrrolo[2,3-D]pyrimidin-6(7H)-one derivative” (Taiho Pharmaceutical Co., Ltd., priority 2016, dated 2020).
